Results reported in ChEMBL document CHEMBL1134260, “Adamantylaminopyrimidines and -pyridines are potent inducers of tumor necrosis factor-alpha” (2001).
Active and inactive are the calls of the source. The rule behind the calls is not given here.

How the values were obtained:
[1] = TNF-alpha stimulatory activity in B78/TNF/9 melanoma cells evaluated by ELISA method; type: functional, Mus musculus; parameters: concentration or dose not given beside the values
Mus musculus [2] = species: Mus musculus; test: Tested for the ability to stimulate TNF-alpha production in B78-H1 murine melanoma cells transduced with gene for human TNF-alpha, clone-9 at 10 uM concentration; In active; type: functional
Mus musculus [3] = species: Mus musculus; test: Tested for the ability to stimulate TNF-alpha production in B78-H1 murine melanoma cells transduced with gene for human TNF-alpha, clone-9 at 10 nM concentration; In active; type: functional
[4] = Tested for the ability to stimulate TNF-alpha production in B78-H1 murine melanoma cells transduced with gene for human TNF-alpha, clone-9 at 10 uM concentration; type: functional, Mus musculus

Row | SMILES | TNF-alpha production (% of control) [1] [%] | other results
1 | c1cncc(NC23CC4CC(CC(C4)C2)C3)c1 | ~190 | –
2 | c1cc(NC23CC4CC(CC(C4)C2)C3)ccn1 | ~130 | –
3 | Cc1cc(N)nc(NC23CC4CC(CC(C4)C2)C3)n1 | ~180 | –
4 | Clc1ccc(NC23CC4CC(CC(C4)C2)C3)cn1 | ~100 | –
5 | Cc1cc(C)nc(NC23CC4CC(CC(C4)C2)C3)c1 | ~250 | Enhancement (Mus musculus [2]): inactive
6 | Brc1ccc(NC23CC4CC(CC(C4)C2)C3)nc1 | ~140 | –
7 | Cc1cc(C)nc(NC23CC4CC(CC(C4)C2)C3)n1 | ~240 | Enhancement (Mus musculus [3]): inactive
8 | c1cnc(NC23CC4CC(CC(C4)C2)C3)nc1 | ~200 | –
9 | Brc1cnc(NC23CC4CC(CC(C4)C2)C3)nc1 | ~150 | –
10 | Cc1cccc(NC23CC4CC(CC(C4)C2)C3)n1 | ~260 | Enhancement [4]: 10%
11 | Cc1cc(Cl)nc(NC23CC4CC(CC(C4)C2)C3)n1 | ~220 | –
12 | NC12CC3CC(CC(C3)C1)C2 | – | Enhancement (Mus musculus [2]): inactive
13 | Cc1ccnc(NC23CC4CC(CC(C4)C2)C3)c1 | ~200 | –
14 | Cc1ccc(NC23CC4CC(CC(C4)C2)C3)nc1 | ~200 | –
15 | c1ccc(NC23CC4CC(CC(C4)C2)C3)nc1 | ~170 | Enhancement (Mus musculus [2]): inactive
